Assay results published in PubChem BioAssay AID1845204 (Molecular Pharmacology Branch, DTP, NCI, 2023).

Tested on: HSSY-II tumor spheroid viability
Test: Anticancer human tumor HSSY-II cell line growth inhibition;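 also: spheroids exposed to compounds for seven days before reading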;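 as to viability, T/C: percent of DMSO vehicle control viability so 100% = untreated level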
Conditions: spheroids with HUVEC and MSC; for IC50: curve of first compound; for viability, T/C: stronger effect = lower value
Source text: Multicellular complex tumor spheroid response to DNA repair inhibitors in combination with DNA-damaging drugs
This study explores the anticancer activities of DNA-damaging drugs and inhibitors of DNA damage repair, both as single agents and in combinations. Complex tumor spheroids comprised of malignant cells, endothelial cells and mesenchymal stem cells served as an in vitro model for human solid tumors. This model system incorporates physiologically relevant features and patient-derived or established malignant cell lines with clinically relevant genetic alterations from many tumor types. Twenty-six patient-derived or established malignant cell lines were evaluated representing sarcoma, melanoma, small cell lung cancer (SCLC), non-small cell lung cancer (NSCLC), as well as bladder, ovarian and pancreatic cancers. The concentration ranges selected for each drug and investigational agent were based upon clinically achievable concentrations if the clinical Cmax of the agent was known.
Compounds. The drugs and compounds olaparib (NSC753686), talazoparib (NSC767125), berzosertib (NSC777718), elimusertib (NSC800525), nedisertib (NSC802822), VX-984 (NSC792969), AZD-1390 (NSC803789), temozolomide (NSC362856), topotecan (NSC609699), trabectedin (NSC813783), staurosporine (NSC755774), and gemcitabine (NSC613327) were obtained from the National Cancer Institute (NCI) Developmental Therapeutics Program Chemical Repository. The FDA-approved anticancer drug set is available from the Developmental Therapeutics Program at https://dtp.cancer.gov/organization/dscb/obtaining/available_plates.htm. […] The stock solutions were prepared in dimethyl sulfoxide (DMSO, Sigma-Aldrich, St. Louis, MO, cat. D2650) at 400-fold the tested concentration and stored at -70 degrees C. Prior to their use, the stock solutions were diluted in fresh medium and the final DMSO concentration in the assay was 0.25% (v/v). All drugs and investigational agents were tested over a range starting from a high concentration at or near the clinical Cmax and decreasing in half-log increments. If the clinical Cmax for an agent had not been determined, the highest concentration tested was 10 microM.
Cell Lines. The patient-derived cancer cell (PDC) lines: 156681-154-R-J1-PDC, 283228-195-R-J1-PDC, 287954-098-R-J1-PDC, 292921-168-R-J2-PDC, 349418-098-R-PDC, 425362-245-T-J1-PDC, 556581-035-R-J1-PDC, and BL0293-F563-PDC were received from the NCI Patient-Derived Models Repository (PDMR, https://pdmr.cancer.gov). The established cell lines HS-SY-2 (RRID:CVCL_8719), MPNST, and SYO-1 (RRID:CVCL_7146) were obtained from the Sloan Kettering Institute. The alveolar soft parts sarcoma cell line ASPS-1 (RRID:CVCL_S738) was established at the NCI and grown from internal seed stocks. The following established cell lines were purchased from the American Type Culture Collection (ATCC, Manassas, VA): G-401 (ATCC, cat. CRL-1441, RRID:CVCL_0270), SW982 (ATCC, cat. HTB-93, RRID:CVCL_1734), VA-ES-BJ (ATCC, cat. CRL-2138, RRID:CVCL_1785), NCI-H719 (ATCC, cat. CRL-5837, RRID:CVCL_1582), NCI-H196 (ATCC, cat. CRL-5823, RRID:CVCL_1509), NCI-H841 (ATCC, cat. CRL-5845, RRID:CVCL_1595), NCI-H1618 (ATCC, cat. CRL-5879, RRID:CVCL_1480), NCI-H1876 (ATCC, cat. CRL-5902, RRID:CVCL_1503), DMS 114 (ATCC, cat. CRL-2066; RRID:CVCL_1174), NCI-H211 (ATCC, cat. CRL-5824; RRID:CVCL_1529), and SW 1271 (ATCC, cat. CRL-2177, RRID:CVCL_1716). The small cell lung cancer cell line COR-L88 was purchased from Sigma-Aldrich (cat. 92031917-1VL, RRID:CVCL_1141). The non-small cell lung cancer cell lines NCI-H226 (RRID:CVCL_1544) and NCI-H322M (RRID:CVCL_1557) were established at the NCI and grown from internal seed stocks. Pooled donor human umbilical vein endothelial cells (HUVEC, Lonza, cat. CC-2519) and human mesenchymal stem cells (hMSC, Lonza, cat. PT-2501) were purchased from Lonza (Walkersville, MD).
Cell Culture. All cells were maintained in an incubator at 37 degrees C and 5% CO2 with 95% humidity. […]

Cc1sc2c(c1C)C(c1ccc(Cl)cc1)=NC(CC(=O)Nc1ccc(O)cc1)c1nnc(C)n1-2 (stereo not given) + CC[C@@]1(O)C(=O)OCc2c1cc1n(c2=O)Cc2cc3c(CN(C)C)c(O)ccc3nc2-1
IC50 (second compound 0.003 µM): 90.9 nM
IC50 (second compound 0.00949 µM): < 9.49 nM
IC50 (second compound 0.03 µM): < 9.49 nM
IC50 (second compound 0.0949 µM): < 9.49 nM
IC50 (second compound 0.3 µM): < 9.49 nM
viability, T/C (second compound 0.003 µM, first compound 0.00949 µM): 78.6%
viability, T/C (second compound 0.003 µM, first compound 0.03 µM): 70.5%
viability, T/C (second compound 0.003 µM, first compound 0.0949 µM): 49.2%
viability, T/C (second compound 0.003 µM, first compound 0.3 µM): 23.5%
viability, T/C (second compound 0.003 µM, first compound 0.949 µM): 9.78%
viability, T/C (second compound 0.003 µM, first compound 3 µM): 7.01%
viability, T/C (second compound 0.00949 µM, first compound 0.00949 µM): 37.7%
viability, T/C (second compound 0.00949 µM, first compound 0.03 µM): 35.2%
viability, T/C (second compound 0.00949 µM, first compound 0.0949 µM): 21.8%
viability, T/C (second compound 0.00949 µM, first compound 0.3 µM): 15.4%
viability, T/C (second compound 0.00949 µM, first compound 0.949 µM): 8.01%
viability, T/C (second compound 0.00949 µM, first compound 3 µM): 4.79%
viability, T/C (second compound 0.03 µM, first compound 0.00949 µM): 7.22%
viability, T/C (second compound 0.03 µM, first compound 0.03 µM): 6.32%
viability, T/C (second compound 0.03 µM, first compound 0.0949 µM): 6.41%
viability, T/C (second compound 0.03 µM, first compound 0.3 µM): 5.13%
viability, T/C (second compound 0.03 µM, first compound 0.949 µM): 2.41%
viability, T/C (second compound 0.03 µM, first compound 3 µM): 2.5%
viability, T/C (second compound 0.0949 µM, first compound 0.00949 µM): 5.51%
viability, T/C (second compound 0.0949 µM, first compound 0.03 µM): 5.61%
viability, T/C (second compound 0.0949 µM, first compound 0.0949 µM): 5.13%
viability, T/C (second compound 0.0949 µM, first compound 0.3 µM): 4.3%
viability, T/C (second compound 0.0949 µM, first compound 0.949 µM): 2.91%
viability, T/C (second compound 0.0949 µM, first compound 3 µM): 2.35%
viability, T/C (second compound 0.3 µM, first compound 0.00949 µM): 4.66%
viability, T/C (second compound 0.3 µM, first compound 0.03 µM): 4.16%
viability, T/C (second compound 0.3 µM, first compound 0.0949 µM): 4.31%
viability, T/C (second compound 0.3 µM, first compound 0.3 µM): 3.08%
viability, T/C (second compound 0.3 µM, first compound 0.949 µM): 1.91%
viability, T/C (second compound 0.3 µM, first compound 3 µM): 0.64%
